# Experimental data published in ChEMBL document CHEMBL3877299, “Imidazopyridine-fused [1,3]-diazepinones part 2: Structure-activity relationships and antiproliferative activity against melanoma cells” (Eur J Med Chem, 2017).
# Tests used:
# Type in all cases: functional
# [1] = Growth inhibition of human COLO205 cells assessed as cell growth at 10 uM incubated for 48 hrs by sulforhodamine B assay relative to control; conditions: COLO 205, 48 h, read-out: Activity
# [2] = Growth inhibition of human SN12C cells assessed as cell growth at 10 uM incubated for 48 hrs by sulforhodamine B assay relative to control; conditions: read-out: Activity
# [3] = Growth inhibition of human HT-29 cells assessed as cell growth at 10 uM incubated for 48 hrs by sulforhodamine B assay relative to control; conditions: HT-29, 48 h, read-out: Activity
# [4] = Growth inhibition of human ACHN cells assessed as cell growth at 10 uM incubated for 48 hrs by sulforhodamine B assay relative to control; conditions: read-out: Activity
# [5] = Growth inhibition of human SK-MEL-2 cells assessed as cell growth at 10 uM incubated for 48 hrs by sulforhodamine B assay relative to control; conditions: SK-MEL-2, 48 h, read-out: Activity
# [6] = Growth inhibition of human RXF393 cells assessed as cell growth at 10 uM incubated for 48 hrs by sulforhodamine B assay relative to control; conditions: RXF 393, 48 h, read-out: Activity
# [7] = Growth inhibition of human KM12 cells assessed as cell growth at 10 uM incubated for 48 hrs by sulforhodamine B assay relative to control; conditions: KM12, 48 h, read-out: Activity
# [8] = Growth inhibition of human SKOV3 cells assessed as cell growth at 10 uM incubated for 48 hrs by sulforhodamine B assay relative to control; conditions: SK-OV-3, 48 h, read-out: Activity
# [9] = Growth inhibition of human MCF7 cells assessed as cell growth at 10 uM incubated for 48 hrs by sulforhodamine B assay relative to control; conditions: MCF7, 48 h, read-out: Activity
# [10] = Growth inhibition of human PC3 cells assessed as cell growth at 10 uM incubated for 48 hrs by sulforhodamine B assay relative to control; conditions: PC-3, 48 h, read-out: Activity
# [11] = Growth inhibition of human SF539 cells assessed as cell growth at 10 uM incubated for 48 hrs by sulforhodamine B assay relative to control; conditions: SF-539, 48 h, read-out: Activity
# [12] = Growth inhibition of human A549/ATCC cells assessed as cell growth at 10 uM incubated for 48 hrs by sulforhodamine B assay relative to control; conditions: A549, 48 h, read-out: Activity
# [13] = Growth inhibition of human HCC2998 cells assessed as cell growth at 10 uM incubated for 48 hrs by sulforhodamine B assay relative to control; conditions: HCC 2998, 48 h, read-out: Activity
# [14] = Growth inhibition of human U251 cells assessed as cell growth at 10 uM incubated for 48 hrs by sulforhodamine B assay relative to control; conditions: U-251, 48 h, read-out: Activity
# [15] = Growth inhibition of human UACC62 cells assessed as cell growth at 10 uM incubated for 48 hrs by sulforhodamine B assay relative to control; conditions: UACC-62, 48 h, read-out: Activity
# [16] = Growth inhibition of human MDA-MB-435 cells assessed as cell growth at 10 uM incubated for 48 hrs by sulforhodamine B assay relative to control; conditions: MDA-MB-435, 48 h, read-out: Activity
# [17] = Growth inhibition of human SK-MEL-5 cells assessed as cell growth at 10 uM incubated for 48 hrs by sulforhodamine B assay relative to control; conditions: SK-MEL-5, 48 h, read-out: Activity
# [18] = Growth inhibition of human IGROV1 cells assessed as cell growth at 10 uM incubated for 48 hrs by sulforhodamine B assay relative to control; conditions: IGROV-1, 48 h, read-out: Activity
# [19] = Growth inhibition of human Hs 578T cells assessed as cell growth at 10 uM incubated for 48 hrs by sulforhodamine B assay relative to control; conditions: read-out: Activity
# [20] = Growth inhibition of human M14 cells assessed as cell growth at 10 uM incubated for 48 hrs by sulforhodamine B assay relative to control; conditions: M14, 48 h, read-out: Activity
# [21] = Growth inhibition of human BT549 cells assessed as cell growth at 10 uM incubated for 48 hrs by sulforhodamine B assay relative to control; conditions: BT-549, 48 h, read-out: Activity
# [22] = Growth inhibition of human SF268 cells assessed as cell growth at 10 uM incubated for 48 hrs by sulforhodamine B assay relative to control; conditions: SF-268, 48 h, read-out: Activity
# [23] = Growth inhibition of human K562 cells assessed as cell growth at 10 uM incubated for 48 hrs by sulforhodamine B assay relative to control; conditions: K562, 48 h, read-out: Activity
# [24] = Growth inhibition of human Caki1 cells assessed as cell growth at 10 uM incubated for 48 hrs by sulforhodamine B assay relative to control; conditions: CAKI-1, 48 h, read-out: Activity
# [25] = Growth inhibition of human HL-60(TB) cells assessed as cell growth at 10 uM incubated for 48 hrs by sulforhodamine B assay relative to control; conditions: HL-60, 48 h, read-out: Activity
# [26] = Growth inhibition of human LOXIMVI cells assessed as cell growth at 10 uM incubated for 48 hrs by sulforhodamine B assay relative to control; conditions: LOX IMVI, read-out: Activity
# [27] = Growth inhibition of human UO31 cells assessed as cell growth at 10 uM incubated for 48 hrs by sulforhodamine B assay relative to control; conditions: UO-31, 48 h, read-out: Activity
# [28] = Growth inhibition of human OVCAR5 cells assessed as cell growth at 10 uM incubated for 48 hrs by sulforhodamine B assay relative to control; conditions: OVCAR-5, 48 h, read-out: Activity
# [29] = Growth inhibition of human A498 cells assessed as cell growth at 10 uM incubated for 48 hrs by sulforhodamine B assay relative to control; conditions: A498, 48 h, read-out: Activity
# [30] = Growth inhibition of human NCI-H322M cells assessed as cell growth at 10 uM incubated for 48 hrs by sulforhodamine B assay relative to control; conditions: read-out: Activity
# [31] = Growth inhibition of human T47D cells assessed as cell growth at 10 uM incubated for 48 hrs by sulforhodamine B assay relative to control; conditions: read-out: Activity
# [32] = Growth inhibition of human EKVX cells assessed as cell growth at 10 uM incubated for 48 hrs by sulforhodamine B assay relative to control; conditions: read-out: Activity
# [33] = Growth inhibition of human NCI-H23 cells assessed as cell growth at 10 uM incubated for 48 hrs by sulforhodamine B assay relative to control; conditions: NCI-H23, 48 h, read-out: Activity
# [34] = Growth inhibition of human CCRF-CEM cells assessed as cell growth at 10 uM incubated for 48 hrs by sulforhodamine B assay relative to control; conditions: read-out: Activity
# [35] = Growth inhibition of human MDA-MB-231 cells assessed as cell growth at 10 uM incubated for 48 hrs by sulforhodamine B assay relative to control; conditions: MDA-MB-231, 48 h, read-out: Activity
# [36] = Growth inhibition of human MALME-3M cells assessed as cell growth at 10 uM incubated for 48 hrs by sulforhodamine B assay relative to control; conditions: read-out: Activity
smiles,measurement,setting,value
C[C@@H]1NC(c2ccc(Cl)cc2)=Nc2nc3ccccn3c2C1=O,growth at 10 µM,[1],91.8%
same,growth at 10 µM,[2],96.8%
same,growth at 10 µM,[3],85.4%
same,growth at 10 µM,[4],88.3%
same,growth at 10 µM,[5],84.8%
same,growth at 10 µM,[6],97.9%
same,growth at 10 µM,[7],64.2%
same,growth at 10 µM,[8],75.5%
same,growth at 10 µM,[9],69.2%
same,growth at 10 µM,[10],90%
same,growth at 10 µM,[11],84.7%
same,growth at 10 µM,[12],85.8%
same,growth at 10 µM,[13],91.6%
same,growth at 10 µM,[14],92.5%
same,growth at 10 µM,[15],78.6%
same,growth at 10 µM,[16],32.9%
same,growth at 10 µM,[17],87.7%
same,growth at 10 µM,[18],50.7%
same,growth at 10 µM,[19],87.1%
same,growth at 10 µM,[20],91%
same,growth at 10 µM,[21],93.6%
same,growth at 10 µM,[22],87.3%
same,growth at 10 µM,[23],70%
same,growth at 10 µM,[24],84.6%
same,growth at 10 µM,[25],102%
same,growth at 10 µM,[26],88.2%
same,growth at 10 µM,[27],68.2%
same,growth at 10 µM,[28],109%
same,growth at 10 µM,[29],118%
same,growth at 10 µM,[30],87%
same,growth at 10 µM,[31],81.4%
same,growth at 10 µM,[32],92.4%
same,growth at 10 µM,[33],81.4%
same,growth at 10 µM,[34],90.8%
same,growth at 10 µM,[35],76%
same,growth at 10 µM,[36],76.2%
